# According to patent US9040586B2, “Veterinary compositions for controlling ecto- and endoparasites in bovines, use of these compositions, use of IGR substances associated with microminerals, method for controlling ecto- and endoparasites in bovines and kit” (Champion Farmoquimico Ltda., priority 2012, dated 2015):
# Tests used:
# [1] = cited from earlier work
# [2] = cited from earlier work; remark: listed apart in the source
# [3] = test system: Rhipicephalus (Boophilus) microplus; assay: Rhipicephalus (Boophilus) microplus challenge: engorged female weight and oviposition; assay type: in vivo, calves; settings: treated group
# Procedure: For this challenge, 5 animals were randomly selected from each group. Animals from both control and treated groups were transferred to individual tick-free pens with wooden tiled floor, where they remained for 21 days until the engorged females dropped to the ground. Those were collected on a daily basis for a 5 day period, and put on plastic vessels, formerly washed and dried with paper towels. After the engorged ticks were weighed, they're put on Petri dishes and then into a B.O.D. incubator for two weeks, under 27° C. and relative humidity over 85% (SANTOS e FURLONG, 2002; PEREIRA, 2006).
# After this period, oviposition in each of the Petri dishes were weighed and transferred to assay tubes (15 cm high and with a 15 mm diameter each) sealed with cotton. The assays tubes were labeled and then returned to the B.O.D. incubator, under the same conditions described above, up to the larval emergence.
# Haematobia irritans [4] = assay: Haematobia irritans field test: horn fly counts on calves; assay type: in vivo
# Procedure: The experiment was conducted at Fazenda Santo Amaro in the city of Ouro Verde de Goiás—GO, Brazil, between October 2011 and January 2012, on 20 calves aged 12-16 months and weigh between 147 and 305 kg, divided in control group (T0) and treated group (T1).
# The animals were weighed, identified and kept on Brachiaha brizantha pasture with “ad libitum” access to drinking water troughs. The control group received “ad libitum” minerals (T0), while the treated group received a micromineral mixture containing iron, copper, manganese, iodine, cobalt, zinc, selenium and chromium added to rock salt. Diflubenzuron was added to this mixture in the following proportion: 1.1 g per kilo of the mixture. A macromineral source was offered separately in the trough.
# In order to determine the number of horn flies, ticks and helminth eggs per gram of feces, as well as periodic weighing, the animals were handled in a 30 day basis.
# The animals were lead to the corral for the initial counting of the total number of horn flies in the cervical and lumbar regions.
# The field experiment was conducted during the summer, a critical period for horn fly infestations in Brazil (BIANCHIN et al., 2004). […]
# At the end of the experimental period, the animals were lead to the containment chute to have the flies counted. […]
# Haematobia irritans [5] = assay: Haematobia irritans in vitro test: eggs developed in feces of treated cattle; assay type: in vivo; settings: 20 days
# Procedure: In order to evaluate the efficacy of Diflubenzuron over H. irritans larval development, without possible interference of climate changes, an experiment was conducted under controlled conditions.
# Adult horn flies over untreated animals were captured with a net and then shipped to the Tropical Pathology and Public Health Institute (IPTSP/GO) in order to obtain the eggs. The flies were put on cages lined with moist coffee filter as a substrate for oviposition. The filter was inspected every three hours for eggs. Those were subject to analysis regarding viability and transferred to a vessel containing feces from 4 animals among the control and diflubenzuron treated groups, randomly chosen, each containing 50 viable eggs. These containers with feces were maintained in a B.O.D. incubator with constant temperature (25° C.) and under photoperiod of 12 hours, for a 20 day period, at the end of which was noted an end to the hatching of eggs.
# Both groups—T0 e T1—, were statistically compared by the Mann-Whitney test, with P adjusted in 0.05 due to the impossibility of testing distribution normality, given the low number of repetitions (n=4).
# [6] = test system: gastrointestinal nematodes of cattle; settings: 19 of the 23 farms; cited from earlier work
molecule,measurement,setting,value
Cc1ccc(N=c2sccn2C)c(C)c1 [Cymiazoles],withdrawal prior to slaughter,[1]; beef cattle,3 days
same,Withdrawal period Milk,"[1]; milk / lactating cows, in words, table cells wrap over 4 rows: 'Do not apply on lactating cows'",no withdrawn period needed
CC1(C)C(C=C(Cl)Cl)C1C(=O)OC(C#N)c1cccc(Oc2ccccc2)c1 (stereo not drawn) [Cypermethrin],Oral LD50,[2],250 mg/kg
CC1(C)[C@H](C(=O)O[C@H](C#N)c2cccc(Oc3ccccc3)c2)[C@@H]1C=C(Br)Br [Deltamethrin],Oral LD50,[2],130 mg/kg
"O=C(NC(=O)c1c(F)cccc1F)Nc1ccc(Cl)cc1 [Diflubenzuron, 1-(4-chloridephenyl)-3-(2,6-difulorobenzoyl)urea]",average engorged female ticks' weight,[3]; control 278 mg,153 mg
same,weight of collected engorged ticks,[3]; control 260-295 mg,145 to 165 mg
same,average egg laying of the female,"[3]; control 2,600",900 eggs
same,median lethal dose,[2]; in vivo,"4,640 mg/kg"
same,reduction on horn fly numbers on the treated group,Haematobia irritans [4],higher than 99%
same,hatching average,"Haematobia irritans [5]; 50 viable eggs per container, feces of treated cattle, 25° C., control 43±4.1633",0.5±0.1
same,"calculated efficiency, based on the control group","Haematobia irritans [5]; in vitro, method of HOLDSWORTH et al., 2006",98.83%
N#Cc1nn(-c2c(Cl)cc(C(F)(F)F)cc2Cl)c(N)c1[S+]([O-])C(F)(F)F (stereo not drawn) [Fipronil],Oral LD50,[2],97 mg/kg
Abamectin,Oral LD50,[2],10 mg/kg
Ivermectin,Oral LD50,[2],52 mg/kg
same,reductions in FEC,[6],< 50%
